Entries after “also recorded” stand apart in the source; their conditions may differ. Where two headings read alike, the source gives them in different places.
Legend:
[1] = Spontaneous decomposition in solution (h.p.l.c. / nmr); assay type: physicochemical; settings: for % of the original remaining: 0.2 M aqueous sodium phosphate pH 6.85, room temperature, h.p.l.c.
Experimental: This instability prevented full characterisation of the acid (I), so it was converted with diazomethane to its methyl ester (IV) in an overall yield of 16% from the benzyl ester (II) (A.G. Brown et al, J. Chem. Soc. Perkin Trans. I, 1984, 635). The spectral data obtained for the methyl ester (IV) were indistinguishable from those obtained by A. G. Brown et al 1984.
Benzyl 3-oxoethylidene-7-oxo-4-oxa-1-azabicyclo[3.2.0]heptane-2-carboxylate (II) (50 mg, 0. 17m mol) was dissolved in tetrahydrofuran (5 ml) and 0.2 M sodium phosphate adjusted to pH 6.85 (5 ml), and hydrogenated at ambient temperature and pressure for ten minutes with 10% palladium on carbon (40 mg). The reaction mixture was rapidly filtered and evaporated to dryness while the temperature was maintained below 10° C. The residue was immediately redissolved in D2O to give a solution of the title compound (III). δH(250 MHz, D20) inter alia E isomer 3.25 (1H, d, J 17.4 Hz, 6β-H), 3.65 (1H, dd, J 17.4 and 2.9 Hz, 6 α-H), 5.73 (1H, d, J 1.2 Hz, 2-H), 5.79 (1H, dd, J 8.3 and 1 Hz, 8-H), 5.94 (1H, d, 2.7 Hz, 5-H), 9.55 (1H, d, J 8.3 Hz, 9-H), Z isomer 3.29 (1H, d, J 17.3 Hz, 6β-H), 3.65 (1H, dd, J 17.4 and 2.9 Hz, 6 α-H), 5.27 (1H, s, 2-H), 5.50 (1H, d, J 8.2 Hz, 8-H), 6.00 (1H, d, J2.7 Hz, 5-H), and 9.70 (1H, d, J 8.2 Hz, 9-H). The E and Z isomers were assigned on the relative positions of their 8-proton resonance (Gerald Brooks+Eric Huit J.Chem.Soc. Perkin Trans. I (1983) 2513) and were in the ratio E-Z (2:1). Material prepared by the above hydrogenation with water substituting for the phosphate solution and adjustment of the pH of the reaction mixture to 6.5 with 0.1 M NaOH gave (III) (Yield 35% from NaOH consumed), λmax. (H2O) 262 nm; vmax.(KBr) 3 400, 1 792 (br), and 1 640 cm^−1 (br), […]; thin layer chromatography on silica 60 eluted with butan- 1-ol-ethanol-water (4:1:1) and visualised with Schiffs reagent gave a blue zone (Rf:0.52). Addition of a known weight of fumaric acid to the crude product solution followed by evaporation and nmr analysis indicated a yield of 20% by comparison of the intensity of the fumarate protons with the intensity of the aldehydic proton of (M). When this solution was allowed to stand at room temperature for 3.5 hours, (III) was seen to have decomposed to a yield of 3.2%.

[2] = tested on: broken cell suspension (BCS) of S.clavuligerus SC2; assay: Enzymic reduction of (III) to clavulanic acid by broken cell suspension, KaG bioassay; assay type: biochemical, Streptomyces clavuligerus
[3] = tested on: broken cell suspension (BCS) of S.clavuligerus SC2; assay: as above; assay type: biochemical, Streptomyces clavuligerus; remark: listed apart in the source
Description: Compound (I) was reduced to clavulanic acid by NADPH in the presence of a broken cell suspension of S. clavuligerus SC2 (Table 1). (SC2 is a reisolate of ATCC 27064). The clavulanic acid produced was detected by KaG bioassay (AG. Brown et al J. Antibiot., 1976, 29, 668) and chromatographic tapes loaded with the reaction mixture, were compared with standards to confirm the presence of clavulanic acid. The reduction was complete before a sample could be removed from the reaction vessel, but appeared to give clavulanic acid in only 14% yield. However, should the enzyme be capable of reducing only the Z isomer of (I) (the geometry of clavulanic acid), the yield is 42%.
Enzymic reduction of (III) to clavulanic acid:- solution of (III) (0.23 mg, 1 μmol, estimated by titration of acid (I)) in water ([…] 1μmol) was added to washed 48 hour S.clavuligerus SC2 cells which had been sonicated (EP 0213 914 example 20) (0.5 ml). The suspension was treated with 10 mM NADPH (0.1 ml, 1 umol), made up to one milliliter with 50 mM MOPS buffer at pH 7.0 and incubated in stoppered tubes at 26° C. Samples (0.2 ml) were removed, treated with methanol (0.2 ml) for 5 minutes, and centrifuged. The clear supernatants were made up to 1.6 ml with MOPS buffer and assayed on discs by the KaG method. Undiluted reaction mixture was applied to Whatman No. 1 chromatography tapes which were developed in either butan-1-ol-acetic acid-water (12:3:5) or butan-1-01-ethanol-water (7:1:2), dried, and visualised by application to a KaG bioassay plate. Standard clavulanic acid solutions were developed and visualised similarly.

[4] = molecular target: Klebsiella E70 β-lactamase; assay: β-lactamase inhibition by automated chromogenic substrate assay of Reading and Farmer; assay type: biochemical
Experimental: β-lactamase inhibition by (III): A solution of III was tested as a β-lactamase inhibitor by the automated chromogenic substrate assay of C. Reading and T. Farmeragainst Klebsiella E70 β-lactamase. Taking the yield of (III) from the hydrogenation reaction as 35% gave an I^50 with pre-incubation of 0.01 μg/ml and without pre-incubation of enzyme and inhibitor of 1μg/ml.

[5] = tested on: β-lactamase; assay: β-lactamase inhibitory activity (method not specified); assay type: biochemical
[6] = Boiled BCS + (III) + NADPH 1 mM

O=CC=C1CN2C(=O)CC2O1 (stereo not shown) [(V), 3-oxoethylidene-7-oxo-4-oxa-1-azabicyclo [3.2.0] heptane]
chemical and stereochemical stability ([1]; organic solution): chemically and stereochemically stable in organic solution

O=CC=C1OC2CC(=O)N2C1C(=O)[O-].[Na+] (stereo not shown) [(III), Sodium 3-Oxoethylidene-7-oxo-4-oxa-1-azabicyclo (3.2.0)heptane-2-carboxylate]
Clavulanic Acid at time 0 mins (KaG bioassy) ([2]; (III) + NADPH 1 mM, no BCS): 8.8 µg/mL | Clavulanic Acid at time 60 mins ([2]; (III) + NADPH 1 mM, no BCS): 7.2 µg/mL | Clavulanic Acid at time 0 mins (KaG bioassy) ([2]; BCS + (III) + NADH 1 mM): 6.2 µg/mL | Clavulanic Acid at time 60 mins ([2]; BCS + (III) + NADH 1 mM): 6.6 µg/mL | Clavulanic Acid at time 0 mins (KaG bioassy) ([2]; BCS + (III)): 8.0 µg/mL | Clavulanic Acid at time 60 mins ([2]; BCS + (III)): 7.0 µg/mL | Clavulanic Acid at time 0 mins (KaG bioassy) ([3]; BCS + (III) + NADPH 1 mM): 28.8 µg/mL | Clavulanic Acid at time 60 mins ([3]; BCS + (III) + NADPH 1 mM): 27.2 µg/mL | Clavulanic Acid at time 0 mins (KaG bioassy) [3, 6]: 6.6 µg/mL | Clavulanic Acid at time 60 mins [3, 6]: 6.6 µg/mL | I50 with pre-incubation ([4]; with pre-incubation of enzyme and inhibitor, yield of (III) from hydrogenation taken as 35%): 0.01 µg/mL | I50 without pre-incubation ([4]; without pre-incubation of enzyme and inhibitor, yield of (III) taken as 35%): 1 µg/mL | % of the original remaining ([1]; after 35 minutes): 85% | % of the original remaining ([1]; after 53 minutes): 63% | yield remaining after decomposition on standing (nmr vs fumaric acid) ([1]; room temperature for 3.5 hours, initial yield 20%): 3.2% | time in which about half had decomposed ([1]; solution of the salt, room temperature, repeated h.p.l.c. analysis): one

O=CC=C1OC2CC(=O)N2C1C(=O)O (stereo not shown) [Compound (I), 3-oxoethylidene-7-oxo-4-oxa-1-azabicyclo-[3.2.0] heptane-2-carboxylic acid]
β-lactamase inhibitory activity (in words) ([5]; chemically synthesised): shown to possess β-lactamase inhibitory activity; also recorded: Strong β-lactamase activity | activity as a β-lactamase inhibitor relative to clavulanic acid ([5]; more active than clavulanic acid): approximately 100 times | rate of decomposition compared with I 111 broth supernatant ([1]; (I) chemically synthesised from 2R, 5R clavulanic acid): same rate of decomposition | half-life ([1]; aqueous solution, read-out: half life in aqueous solution (converted)): ~30 min | half-life ([1]; at 21° C., read-out: half-life): ~30 min

— patent US6692950B1, “Clavulanic acid dehydrogenase, preparation and use for the production of clavulanic acid” (SmithKline Beecham plc, priority 1993, dated 2004)
